Measurements as given in the supplement of paper PMC8837787.

System: Saccharomyces cerevisiae ABC16-Green Monster
Assay: growth inhibition at single dose (up to 150 µM), below the 70% cut-off for dose-response; higher = more potent
Settings: 18 h; 30 °C; YPD
Procedure, shortened: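 Data are given as percent growth inhibition. Log-phase drug-sensitive S. cerevisiae ABC16-Green Monster cells (OD600 0.1–0.2, 200 µl per well in 96-well plates) were treated in biological duplicates with each library compound at a single 150 µM dose, with untreated cultures alongside, and OD600 was measured at 0 h and after 18 h at 30 °C. Compounds falling below 70% in both replicates were not taken to dose-response.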

Structure (SMILES)	growth inhibition at single dose [%]
Nc1ncnc2c1ncn2C[C@@H](O)[C@@H](O)C(=O)O	< 70
Cc1ccc(Oc2c(C)[nH]c(-c3ccccc3)nc2=O)cc1	< 70
Cc1cc(C)c2nc(N3CCC(C(=O)NCCCN4CCC(N5CCCCC5)CC4)CC3)sc2c1	< 70
O=C(Nc1cnc2ccccc2c1)c1cccc(-n2cnnn2)c1	< 70
Cc1cc(/C=C/C(=O)Nc2nccs2)c(C)n1-c1ccccc1	< 70
CCN(CC)c1cc(C)c2cc(NC(=O)c3cccc(OC)c3)ccc2n1	< 70
CCCn1c(=O)n(CC(=O)Nc2ccc(C)c(C)c2)c(=O)c2c1nc(C(F)(F)F)n2CCOC	< 70
CCCS(=O)(=O)N1CCC(CO)(Cc2ccccc2C(F)(F)F)CC1	< 70
O=C(Nc1cc(S(=O)(=O)N2CCCC2)ccc1O)c1sccc1-n1cccc1	< 70
COc1ccc(-c2nc(C(=O)N3CCc4ccccc43)cs2)cc1OC	< 70
CCOc1cc(CNC(C)C(O)c2ccccc2)cc(Cl)c1OCC (configuration not stated)	< 70
Cc1nn2c(O)c3c(nc2c1-c1ccc(F)cc1)CCCC3	< 70
CNC(=O)c1ccc(CN(C2CC2)S(=O)(=O)c2cc(C)ccc2C)cc1	< 70
Cc1nc(-c2cccc(NCc3ccccc3)c2)[nH]c1C	< 70
Clc1ccc(CCNc2cc(-c3ccccc3)nc3ncnn23)cc1	< 70
CCN(CC)CCn1c(NC(=O)c2cnc3c(cnn3C(C)C)c2)nc2ccccc21	< 70
COc1ccc(C2(C(=O)Nc3ccc(Br)cc3)CCCC2)cc1	< 70
COc1cc(CNCCc2ccc(Cl)cc2)cc(OC)c1O	< 70
CC(c1ccc(-c2ccccc2)c(F)c1)c1nn2c(-c3ccco3)nnc2s1 (configuration not stated)	< 70
O=C(NCCCc1nc2ccccc2[nH]1)c1[nH]nc2ccccc12	< 70
COc1ccnc(Nc2ccc3c(c2)nc2n3CCCCC2)n1	< 70
CC(C)(C)c1ccc(O)c(CNC2CCCCC2)c1	< 70
Cc1ccc(-c2cc3c(nn2)-c2ccccc2C3=O)cc1	< 70

Structure (SMILES)	growth inhibition at single dose [%]
CC(Oc1ccc(NC(=O)c2cccs2)cc1)C(=O)c1ccc(Cl)cc1 (configuration not stated)	< 70
Cc1ccc(NC(=O)Nc2cccc(Cl)c2)cc1F	< 70
COc1cc(NC(C)CCCN)c2ncccc2c1 (configuration not stated)	< 70
COc1cc2c3cc1Oc1c(OC)c(OC)cc4c1C(Cc1ccc(O)c(c1)Oc1ccc(cc1)CC3N(C)CC2)N(C)CC4 (configuration not stated)	< 70
CN(C)c1ccc(N=Cc2ccc(N3CCOCC3)cc2)cc1	< 70
Cc1cc(Nc2ccc(C)c(Cl)c2)n2nc(C(F)(F)F)nc2n1	< 70
Cc1ccc(OCCCCCCNCCO)c(C)c1	< 70
O=S(=O)(c1ccc2ccccc2c1)N1CCCC1c1nnc2ccccn12 (configuration not stated)	< 70
Cc1csc(SCC(=O)c2cc(C)n(-c3ccccc3)c2C)n1	< 70
c1ccc(C[C@@H]2CN(c3nccc(Oc4ccc(-n5ccnc5)cc4)n3)CCN2)cc1	< 70
Cc1cc(NCCN2CCCCC2)c2ccc3ccccc3c2n1	< 70
Cc1ccccc1OCCSc1nc2ccc(NC(=O)c3cccs3)cc2s1	< 70
O=C1c2ccccc2-c2nnc(-c3ccc(Br)cc3)cc21	< 70
Oc1ccc(-c2nc(-c3ccc4oc5ccc(-c6[nH]c(-c7ccc(O)cc7)nc6-c6ccccc6)cc5c4c3)c(-c3ccccc3)[nH]2)cc1	< 70
CCCOc1ccc(/C=N/NC(=S)Nc2ccccc2[N+](=O)[O-])c(O)c1	< 70
Nc1ncc(-c2cn[nH]c2)cc1-c1nc2cc(Cl)cnc2[nH]1	< 70
O=C(Nc1nnc(S)s1)c1cc(Br)ccc1Cl	< 70
O=C(Nc1ccc(Br)cc1)Nc1cccc(Cl)c1	< 70
NCCC(O)C(=O)N[C@@H]1C[C@H](N)[C@@H](OC2O[C@H](CN)[C@@H](O)[C@H](O)[C@H]2O)[C@H](O)C1OC1O[C@H](CO)[C@@H](O)[C@H](N)[C@H]1O (some centres not stated)	< 70
Cc1cc(N2CCN(CCO)CC2)n2ncc(-c3ccc(F)cc3)c2n1	< 70
O=C(Nc1ccc(-c2nc3ccccc3[nH]2)cc1)C1CCC1	< 70
O=C(CN1CCOCC1)Nc1ccc2ncnc(Nc3ccc(OCc4cccc(F)c4)c(Cl)c3)c2c1	< 70
CC(C)C(NC(=O)Cc1cccc2ccccc12)C(=O)Nc1cccc(C#N)c1 (configuration not stated)	< 70

Structure (SMILES)	growth inhibition at single dose [%]
COc1ccc(/C(C#N)=C/c2ccccc2OC)cc1	< 70
CC(C)C(Oc1cccc2ccccc12)C(=O)O (configuration not stated)	< 70
Nc1ncnc2c1ncn2[C@@H]1O[C@H](COS(=O)(=O)NC(=O)c2ccccc2O)[C@@H](O)[C@H]1O	< 70
CCOc1ccc(CN2CCN(CC(O)COc3ccc(OCC(O)CN4CCN(Cc5ccc(OCC)cc5)CC4)cc3)CC2)cc1 (configuration not stated)	< 70
Cc1[nH]c2cc(F)cc(F)c2c(=O)c1-c1ccc(Oc2ccc(OC(F)(F)F)cc2)cc1	< 70
CCN(CC)S(=O)(=O)c1ccc(-c2csc(Nc3ccc(C)c(C)c3)n2)cc1	< 70
CN1C=C(c2ccc3ccccc3n2)C(c2c[nH]c3ccccc23)c2ccccc21 (configuration not stated)	< 70
OC[C@H]1O[C@@H](n2c3ccc(Cl)cc3c3c(-c4cc5ccccc5o4)ncnc32)C(O)[C@H]1O (some centres not stated)	< 70
N#Cc1ccc(-c2ccc(OCC(N)=O)cc2)cc1	< 70
CCN(CC)CCNc1ccnc2cc(Cl)ccc12	< 70
CO[C@@H](C(=O)N1Cc2[nH]nc(NC(=O)c3ccc(N4CCN(C)CC4)cc3)c2C1)c1ccccc1	< 70
O=C(COc1ccc(Oc2ccccc2)cc1)NCc1cn2ccccc2n1	< 70
CC(C)OCc1cc(CN2CCN(c3cccc(Cl)c3)CC2)c(O)c2ncccc12	< 70
C=CCn1c(C)cc(C(=O)CSc2nc3ccccc3s2)c1C	< 70
Cc1ccccc1C(=O)OCC(=O)c1cc(C)n(Cc2ccco2)c1C	< 70
CCOc1ccc(-c2nc(NC(=O)c3cccc(S(C)(=O)=O)c3)sc2C)cc1	< 70
CC1CCCN(C(=O)C(C)Nc2cc(Cl)ccc2N2CCOCC2)C1 (configuration not stated)	< 70
Cc1ccsc1C(=O)Nc1ccc(N2CCN(C)CC2)cn1	< 70
Oc1c2c(nc3ccccc13)CCCC2	< 70
CC(=O)c1ccc(NC(=O)CSc2nc(-c3ccccc3Cl)ns2)cc1	< 70
CC1CC(C)CN(C(=O)c2ccc(Cl)cc2Cl)C1 (configuration not stated)	< 70
CNC(=O)C1Cc2ccccc2N1C(=O)Cc1ccc(F)cc1 (configuration not stated)	< 70
Cc1ccc(Nc2nc(NCCO)c3ccccc3n2)cc1C	< 70

Structure (SMILES)	growth inhibition at single dose [%]
O=C(Cn1ncc(Cl)c(Cl)c1=O)Nc1cc(S(=O)(=O)N2CCOCC2)ccc1Cl	< 70
CC(=O)NCC1CN(c2ccc(-c3ccc(CNCc4cn[nH]n4)cc3)c(F)c2)C(=O)O1 (configuration not stated)	< 70
O=C(c1ccc(F)cc1)N(CCNc1ccccc1)c1ccccc1	< 70
CS(=O)(=O)c1cccc(-c2cnc3[nH]cc(-c4ccc(CCC(=O)O)cc4)c3c2)c1	< 70
CCOC(=O)c1cnc2c(C)cc(C)cc2c1Nc1ccc(OC)c(OC)c1	< 70
COc1ccc2c(c1)C1(Nc3ccccc3-c3nc4ccccc4n31)C(=O)N2 (configuration not stated)	< 70
O=C(O)C1Cc2c([nH]c3ccccc23)C(c2ccc(Cl)cc2Cl)N1 (configuration not stated)	< 70
CC(=O)Nc1cccc(Oc2ccc(C(=O)Nc3ccc4ccccc4c3)cc2[N+](=O)[O-])c1	< 70
COc1ccccc1C(=O)ON=C(N)Cc1cccc2ccccc12	< 70
O=C(Nc1nc2c(s1)CCC2)c1cnn(-c2ccccc2)c1C1CC1	< 70
COc1ccc2nc(C)cc(Nc3cccc(O)c3)c2c1	< 70
O=c1nc(CCc2ccc3c(c2)OCCO3)[nH]c2ccccc12	< 70
CN1CCN(CCCOc2ncc(Nc3ncc(-c4ccc(C(F)(F)F)c(F)c4)nc3C(N)=O)cn2)CC1	< 70
CCCn1nnc(NC(=O)COc2ccc(C3CCCCC3)cc2)n1	< 70
COc1ccc(C2C(C(=O)Nc3cccc(OC)c3)c3ccccc3C(=O)N2C2CCCCC2)cc1 (configuration not stated)	< 70
O=C(Nc1ccc(CNc2ncnc3cc(Cl)ccc23)cc1)C1CC1	< 70
COc1ccc(CCn2nc(C(=O)NC3CC3)c3c2CCN(C(=O)c2cc(C)n[nH]2)C3)cc1	< 70
COc1cc(C(=O)ON=C(N)Cc2cccc3ccccc23)cc(OC)c1OC	< 70
N#Cc1ccsc1NC(=O)CN1CCN(CC(=O)Nc2ccc(Cl)c(C(F)(F)F)c2)CC1	< 70
C=CCn1c(C)cc(C(=O)CNC(=O)Nc2ccccc2)c1C	< 70
O=C(Nc1ccc(N2CCCC2)cn1)c1cccc(F)c1	< 70
Cc1cccc(N2C(=O)C3C(C2=O)C2(c4ccccc4)C(=O)C3(c3ccccc3)C(c3ccc4c(c3)OCO4)=C2c2ccc3c(c2)OCO3)c1 (configuration not stated)	< 70
Cc1cc(C2=NNC(=NC3CC3)SC2)c(C)n1-c1ccccn1	< 70
